# What was measured:
# Experiment in all cases: relative viability (nuclei count vs DMSO), 5 days (fraction); higher = more cells survive
# [1] = compound: CC(C)C[C@H](NC(=O)[C@H](Cc1ccccc1)NC(=O)c1cnccn1)B(O)O [Bortezomib] + C[C@@H](Oc1cc(-c2cnn(C3CCNCC3)c2)cnc1N)c1c(Cl)ccc(F)c1Cl [Crizotinib] (partner 1 µM)
# Outline: (§1)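 Lung cancer cell lines were pin-tool dosed in 1536-well plates on the day after seeding, with either a lone drug or a fixed anchor-drug dose plus five library-drug doses (not always all listed) in √10 steps. Nuclei were counted on 4× images after 5 days. Relative viability is the ratio of treated-well to vehicle-well nuclei counts, with each value a median of duplicate plates.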
# [2] = compound: CC1=CC(=NN1)NC2=CC(=NC(=N2)/C=C/C3=CC=CC=C3)N4CCN(CC4)C + Nc1ncn([C@H]2C[C@H](O)[C@@H](CO)O2)c(=O)n1 [Decitabine] (partner 2 µM)
# Outline: as §1
# [3] = compound: COC1=CC(c2cc3ccccc3[nH]2)=N/C1=C\c1[nH]c(C)cc1C [Obatoclax] + CC(C)C[C@H](NC(=O)[C@H](Cc1ccccc1)NC(=O)c1cnccn1)B(O)O [Bortezomib] (partner 0.002 µM)
# Outline: as §1
# [4] = compound: COC1=CC(c2cc3ccccc3[nH]2)=N/C1=C\c1[nH]c(C)cc1C [Obatoclax] + Cc1cc(Nc2cc(N3CCN(C)CC3)nc(Sc3ccc(NC(=O)C4CC4)cc3)n2)n[nH]1 [Tozasertib] (partner 0.1 µM)
# Outline: as §1
Cell Line,relative viability ([1]; first compound 0.0002 µM),relative viability ([1]; first compound 0.000632 µM),relative viability ([1]; first compound 0.002 µM),relative viability ([1]; first compound 0.006325 µM),relative viability ([1]; first compound 0.02 µM),relative viability ([2]; first compound 0.08 µM),relative viability ([2]; first compound 0.253 µM),relative viability ([2]; first compound 0.8 µM),relative viability ([2]; first compound 2.53 µM),relative viability ([2]; first compound 8 µM),relative viability ([3]; first compound 0.01 µM),relative viability ([3]; first compound 0.03162 µM),relative viability ([3]; first compound 0.1 µM),relative viability ([3]; first compound 0.3162 µM),relative viability ([3]; first compound 1 µM),relative viability ([4]; first compound 0.01 µM),relative viability ([4]; first compound 0.03162 µM),relative viability ([4]; first compound 0.1 µM),relative viability ([4]; first compound 0.3162 µM),relative viability ([4]; first compound 1 µM)
NCI-H2085,0.814,0.988,0.757,0.188,0.217,0.541,0.507,0.56,0.336,0.298,1.06,1.1,0.93,0.88,0.427,0.751,0.826,0.895,0.776,0.645
NCI-H3122,0.252,0.264,0.287,0.275,0.182,0.372,0.364,0.46,0.379,0.298,0.966,1.01,1.02,1.03,1.06,0.389,0.361,0.382,0.373,0.391
NCI-H1651,0.805,0.837,0.816,0.778,0.141,0.356,0.597,0.613,0.322,0.132,0.901,0.855,0.858,0.943,0.992,0.796,0.752,0.737,0.552,0.468
NCI-H441,0.584,0.716,0.29,0.135,0.129,0.233,0.222,0.223,0.172,0.12,0.378,0.498,0.413,0.291,0.22,0.497,0.677,0.666,0.52,0.385
ABC-1,1.1,0.693,0.22,0.178,0.195,1.02,0.954,1.1,0.811,0.268,0.323,0.134,0.23,0.323,0.212,0.181,0.17,0.177,0.209,0.223
NCI-H2126,0.991,0.993,1.08,0.957,0.195,0.602,0.595,0.55,0.561,0.27,1.13,1.04,1.09,1.12,1.07,0.908,0.827,0.87,0.832,0.819
RERF-LC-KJ,0.846,0.85,0.84,0.271,0.178,0.73,0.677,0.695,0.272,0.242,1.04,1.07,1.09,0.851,0.765,0.444,0.536,0.487,0.493,0.281
NCI-H1666,0.941,1.11,0.9,0.202,0.228,0.574,0.682,0.749,0.719,0.584,0.863,0.815,0.979,0.348,0.35,0.634,0.739,0.694,0.367,0.398

# Source: the supplement of paper PMC10307832
